Where “and” joins values, the source holds several entries; their conditions need not be identical. Equal entries are not always repeated. Where two headings read alike, the source gives them in different places.
Target: T1, TLR9 (Mus musculus, UniProt Q9EQU3)
T1 construct: from tissue; host or cells: primary splenocytes from C57BL-6/N mouse spleen
T1 sequence (Q9EQU3 26-1032): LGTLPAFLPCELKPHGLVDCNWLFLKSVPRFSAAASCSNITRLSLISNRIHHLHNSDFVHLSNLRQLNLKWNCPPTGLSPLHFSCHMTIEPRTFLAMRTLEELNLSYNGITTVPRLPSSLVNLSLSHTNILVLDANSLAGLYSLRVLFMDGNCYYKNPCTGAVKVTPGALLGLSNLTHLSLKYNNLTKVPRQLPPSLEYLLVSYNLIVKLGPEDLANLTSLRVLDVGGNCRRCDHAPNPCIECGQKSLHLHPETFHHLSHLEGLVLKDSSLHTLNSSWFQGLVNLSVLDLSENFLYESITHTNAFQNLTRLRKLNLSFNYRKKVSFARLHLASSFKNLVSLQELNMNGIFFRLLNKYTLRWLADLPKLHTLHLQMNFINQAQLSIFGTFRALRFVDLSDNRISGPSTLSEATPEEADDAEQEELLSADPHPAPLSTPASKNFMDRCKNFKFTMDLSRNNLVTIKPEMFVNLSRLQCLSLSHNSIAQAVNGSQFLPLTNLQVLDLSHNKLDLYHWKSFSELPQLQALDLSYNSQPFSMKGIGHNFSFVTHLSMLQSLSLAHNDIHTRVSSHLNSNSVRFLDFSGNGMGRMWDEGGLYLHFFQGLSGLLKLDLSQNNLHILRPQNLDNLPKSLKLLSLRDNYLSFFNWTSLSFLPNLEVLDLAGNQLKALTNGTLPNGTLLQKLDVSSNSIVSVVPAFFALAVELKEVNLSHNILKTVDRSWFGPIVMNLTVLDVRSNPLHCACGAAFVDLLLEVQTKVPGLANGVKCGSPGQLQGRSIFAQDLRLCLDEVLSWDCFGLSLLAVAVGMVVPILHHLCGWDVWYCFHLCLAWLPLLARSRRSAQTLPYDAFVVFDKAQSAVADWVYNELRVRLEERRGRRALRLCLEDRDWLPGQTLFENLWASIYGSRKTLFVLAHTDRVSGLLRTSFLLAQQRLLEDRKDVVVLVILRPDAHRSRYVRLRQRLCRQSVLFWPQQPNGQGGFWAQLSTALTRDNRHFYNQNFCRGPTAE
Experiment: Mouse spleenocytes cell assay with CpG stimulation (IL6/TNFa ELISA)
Format: cell-based
Conditions: CpG 5 µM
Method: Mouse spleen from healthy, female C57BL-6/N mice (n=2) were taken out in 50 mL tubes with B-Cell medium and the experiment started directly. The spleen was grinded through a cell strainer by using the punch of a syringe into a 50 mL Falcon tube. Cell strainer and punch were flushed with appropriate amount of washing buffer to avoid cellloss. Then the spleenocytes were centrifuged for 10 min at 552 xg (1600 rpm), 4° C. The erythrocytes within the cell pellet were lysed by resuspending pellet in 1 ml ACK-lysing buffer (4° C.) and incubate for 1 minute at RT. Lysis was stopped by filling up to 50 ml with washing buffer and centrifuged for 10 min at 552 xg (1600 rpm), 4° C. Cells were washed in B-cell Media (IMDM + 25 mM HEPES + 10%FCS + pen/strep + NEAA 10 nM + Sodium Pyrovat 100 nM, β-Mercaptoethanol 50 nM), counted and seeded in a density of 148500 cells per well in a 96 well MTP (135µl of 1,1×106c/ml). The cells were pre-treated with antimalarials (15 µL, in different concentrations according to dose-response curve ranging from 100 pM-50 µM)) for 30 min, at 37° C., 5% CO2, followed by TLR⅞ stimulation with R848 (15 µl, final concentration of 1 µM) or a TLR9 stimulation with CpG (15 µl, final concentration of 5 µM) and incubated at 37° C., 5% CO2 for 18 - 24 hours.
Supernatants were collected and transferred into a 96 well round bottom MTP and stored at -20° C. until ELISA formouse IL6 and mouse TNFa were performed. Plates were read directly after assay on an Envision Multiplate reader. Results were analyzed with GraphPadPrism V8.0. Plot the calculated amount of produced IL6 or TNFa in pg/ml on y-axis and the concentration of each MSC concentration at half logarhythmic scaling on the x-axis to achieve a dose-response curve. Determine IC50 values using Graph Pad Prism analysis software (Transform Y values using “X=Log(X) and log inhibitor vs. response; Variable slope (four parameters).

[1] = IL6 readout, read-out: IC50 TLR9 (IL6 readout) mouse spleenocytes (n=2)
[2] = TNF readout, read-out: IC50 TLR9 (TNF readout) mouse spleenocytes (n=2)

SMILES | IC50 [1] | IC50 TLR9 (TNF readout) mouse spleenocytes (n=2) (TNF readout) | IC50 [2]
CCN(CCO)CCCC(C)Nc1ccnc2cc(Cl)ccc12 (centres unmarked) [HYDROXY-CHLOROQUINE HCQ, hydroxychloroquine] | 15400 nM and 1700 nM | no suppr | 11500 nM
COc1ccc2nc3cc(Cl)ccc3c(Nc3cc(CN4CCCC4)c(O)c(CN4CCCC4)c3)c2n1 [Compound 1, Pyronaridine] | 14 nM and 35 nM |  | 21 nM and 140 nM
